Experimental data: patent US7956190B2, “Benzimidazole amido derivatives as kinase inhibitors” (Hoffmann-La Roche Inc., priority 2007, dated 2011)

Each molecule was assayed on HCT 116 cells (assay: CellTiter-Glo Assay in HCT 116 Cells). Details: HCT 116 human colon carcinoma cells, 5 days (120 h) incubation, CellTiter-Glo luminescence, tested in triplicate.
Type: cell-based
Description: CellTiter-Glo™ Assay in HCT 116 Cells
The CellTiter-Glo™ Luminescent Cell Viability Assay (Promega) is a homogeneous method of determining the number of viable cells in culture based on quantitation of the ATP present, which signals the presence of metabolically active cells.
HCT 116 cells (human colon carcinoma, ATCC-No. CCl-247) were cultivated in RPMI 1640 medium with GlutaMAX™ I (Invitrogen, Cat-No. 61870-010), 5% Fetal Calf Serum (FCS, Sigma Cat-No. F4135 (FBS)); 100 Units/ml penicillin/100 μg/ml streptomycin (=Pen/Strep from Invitrogen Cat. No. 15140). For the assay the cells were seeded in 384 well plates, 1000 cells per well, in the same medium. The next day the test compounds were added in various concentrations ranging from 30 μM to 0.0015 μM (10 concentrations, 1:3 diluted). After 5 days the CellTiter-Glo™ assay was done according to the instructions of the manufacturer (CellTiter-Glo™ Luminescent Cell Viability Assay, from Promega). In brief: the cell-plate was equilibrated to room temperature for approximately 30 minutes and than the CellTiter-Glo™ reagent was added. The contents were carefully mixed for 15 minutes to induce cell lysis. After 45 minutes the luminescent signal was measured in Victor 2, (scanning multiwell spectrophotometer, Wallac).
• Medium: RPMI 1640 with GlutaMAX™ I (Invitrogen, Cat-Nr. 61870), 5% FCS (Sigma Cat.-No. F4135), Pen/Strep (Invitrogen, Cat No. 15140). • HCT116 (ATCC-No. CCl-247): 1000 cells in 60 μl per well of 384 well plate (Greiner 781098, μClear-plate white) • After seeding incubate plates 24 h at 37° C., 5% CO2 2nd. Day: Induction (Treatment with Compounds, 10 Concentrations):
In order to achieve a final concentration of 30 μM as highest concentration 3.5 μl of 10 mM compound stock solution were added directly to 163 μl media. Then step e) of the dilution procedure described below, was followed.

| SMILES | IC50 [µM] |
| --- | --- |
| O=C(Nc1cccc2nc(-c3c(NC[C@@H](O)c4ccccc4)cc[nH]c3=O)[nH]c12)c1ccco1 [Example B-19, Furan-2-carboxylic acid {2-[4-((S)-2-hydroxy-2-phenyl-ethylamino)-2-oxo-1,2-dihydro-pyridin-3-yl]-3H-benzoimidazol-4-yl}-amide] | 1 to 15 |
| COc1ccc(OC(=O)Nc2cccc3nc(-c4c(NC[C@@H](O)c5ccccc5)cc[nH]c4=O)[nH]c23)cc1 [Example C-1, {2-[4-((S)-2-Hydroxy-2-phenyl-ethylamino)-2-oxo-1,2-dihydro-pyridin-3-yl]-3H-benzoimidazol-4-yl}-carbamic acid 4-methoxy-phenyl ester] | 1 to 15 |
| COCCOC(=O)Nc1cccc2nc(-c3c(NC[C@@H](O)c4ccccc4)cc[nH]c3=O)[nH]c12 [Example C-2, {2-[4-((S)-2-Hydroxy-2-phenyl-ethylamino)-2-oxo-1,2-dihydro-pyridin-3-yl]-3H-benzoimidazol-4-yl}-carbamic acid 2-methoxy-ethyl ester] | 1 to 15 |
| CC(C)(OC(=O)Nc1cccc2nc(-c3c(NC[C@@H](O)c4ccccc4)cc[nH]c3=O)[nH]c12)C(Cl)(Cl)Cl [Example C-3, {2-[4-((S)-2-Hydroxy-2-phenyl-ethylamino)-2-oxo-1,2-dihydro-pyridin-3-yl]-3H-benzoimidazol-4-yl}-carbamic acid 2,2,2-trichloro-1,1-dimethyl-ethyl ester] | 1 to 15 |
| C=CCOC(=O)Nc1cccc2nc(-c3c(NC[C@@H](O)c4ccccc4)cc[nH]c3=O)[nH]c12 [Example C-5, {2-[4-((S)-2-Hydroxy-2-phenyl-ethylamino)-2-oxo-1,2-dihydro-pyridin-3-yl]-3H-benzoimidazol-4-yl}-carbamic acid allyl ester] | 2.78 |
| CC(C)OC(=O)Nc1cccc2nc(-c3c(NC[C@@H](O)c4ccccc4)cc[nH]c3=O)[nH]c12 [Example C-6, {2-[4-((S)-2-Hydroxy-2-phenyl-ethylamino)-2-oxo-1,2-dihydro-pyridin-3-yl]-3H-benzoimidazol-4-yl}-carbamic acid isopropyl ester] | 1 to 15 |
| COC(=O)Nc1cccc2[nH]c(-c3c(NC[C@@H](O)c4cccc(Cl)c4)cc[nH]c3=O)nc12 [Example C-7, (2-{4-[(S)-2-(3-Chloro-phenyl)-2-hydroxy-ethylamino]-2-oxo-1,2-dihydro-pyridin-3-yl}-1H-benzoimidazol-4-yl)-carbamic acid methylester] | 1 to 15 |
| O=C(Nc1cccc(F)c1)Nc1cccc2nc(-c3c(NC[C@@H](O)c4ccccc4)cc[nH]c3=O)[nH]c12 [Example D-1, 1-(3-Fluoro-phenyl)-3-{2-[4-((S)-2-hydroxy-2-phenyl-ethylamino)-2-oxo-1,2-dihydro-pyridin-3-yl]-3H-benzoimidazol-4-yl}-urea] | 1 to 15 |
| COc1ccc(NC(=O)Nc2cccc3nc(-c4c(NC[C@@H](O)c5ccccc5)cc[nH]c4=O)[nH]c23)cc1 [Example D-2, 1-{2-[4-((S)-2-Hydroxy-2-phenyl-ethylamino)-2-oxo-1,2-dihydro-pyridin-3-yl]-3H-benzoimidazol-4-yl}-3-(4-methoxy-phenyl)-urea] | 1 to 15 |
| O=C(Nc1ccc(F)cc1)Nc1cccc2nc(-c3c(NC[C@@H](O)c4ccccc4)cc[nH]c3=O)[nH]c12 [Example D-3, 1-(4-Fluoro-phenyl)-3-{2-[4-((S)-2-hydroxy-2-phenyl-ethylamino)-2-oxo-1,2-dihydro-pyridin-3-yl]-3H-benzoimidazol-4-yl}-urea] | 3.61 |
| O=C(Nc1ccc(OC(F)(F)F)cc1)Nc1cccc2nc(-c3c(NC[C@@H](O)c4ccccc4)cc[nH]c3=O)[nH]c12 [Example D-4, 1-{2-[4-((S)-2-Hydroxy-2-phenyl-ethylamino)-2-oxo-1,2-dihydro-pyridin-3-yl]-3H-benzoimidazol-4-yl}-3-(4-trifluoromethoxy-phenyl)-urea] | 1 to 15 |
| O=C(Nc1ccccc1)Nc1cccc2nc(-c3c(NC[C@@H](O)c4ccccc4)cc[nH]c3=O)[nH]c12 [Example D-5, 1-{2-[4-((S)-2-Hydroxy-2-phenyl-ethylamino)-2-oxo-1,2-dihydro-pyridin-3-yl]-3H-benzoimidazol-4-yl}-3-phenyl-urea] | 1 to 15 |
| COc1cccc(NC(=O)Nc2cccc3nc(-c4c(NC[C@@H](O)c5ccccc5)cc[nH]c4=O)[nH]c23)c1 [Example D-6, 1-{2-[4-((S)-2-Hydroxy-2-phenyl-ethylamino)-2-oxo-1,2-dihydro-pyridin-3-yl]-3H-benzoimidazol-4-yl}-3-(3-methoxy-phenyl)-urea] | 1 to 15 |
| O=C(NCc1ccccc1)Nc1cccc2nc(-c3c(NC[C@@H](O)c4ccccc4)cc[nH]c3=O)[nH]c12 [Example D-7, 1-Benzyl-3-{2-[4-((S)-2-hydroxy-2-phenyl-ethylamino)-2-oxo-1,2-dihydro-pyridin-3-yl]-3H-benzoimidazol-4-yl}-urea] | 1 to 15 |
| O=C(Nc1ccccc1Cl)Nc1cccc2[nH]c(-c3c(NC[C@@H](O)c4cccc(Cl)c4)cc[nH]c3=O)nc12 [Example D-8, 1-(2-Chloro-phenyl)-3-(2-{4-[(S)-2-(3-chloro-phenyl)-2-hydroxy-ethylamino]-2-oxo-1,2-dihydro-pyridin-3-yl}-1H-benzoimidazol-4-yl)-urea] | 1 to 15 |
